In brackets after ≈: the same amount, converted by molar mass. Activity calls are given as the source filed them. The calls are words filed in the database; no cut-off is given here.

For test [1], the species on record is Homo sapiens. Nature of the test: Induction of phytohemagglutininin-activated HMNC proliferation assessed as [3H]thymidine uptake at 10 ug/mL after 3 days by lymphoproliferation test relative to control. The class given is functional.
For test [2], the species on record is Homo sapiens. Description: Immunomodulatory activity in resting HMNC assessed as IFN-gamma production at 10 ug/mL after 3 days by EIA realtive to control. The class given is functional.
The species named for test [3] is Homo sapiens. Description: Induction of resting HMNC proliferation assessed as [3H]thymidine uptake at 10 ug/mL after 3 days by lymphoproliferation test relative to control. Format: functional.
For test [4], the species on record is Homo sapiens. Nature of the test: Immunomodulatory activity in phytochemagglutininin-stimulatedHMNC assessed as IFN-gamma production at 10 ug/mL after 3 days by EIA realtive to control. Format: functional.
Test [5] in a line: Induction of resting HMNC proliferation assessed as [3H]thymidine uptake after 3 days by lymphoproliferation test. Format: functional, Homo sapiens.
Test [6] is filed under the species Homo sapiens. Nature of the test: (§1) Immunomodulatory activity in phytochemagglutininin-stimulatedHMNC assessed as IFN-gamma production after 3 days by EIA. Format: functional.
A short description of test [7]: as §1. The class given is functional, Homo sapiens.
The nature of test [8]: Induction of phytohemagglutininin-activated HMNC proliferation assessed as [3H]thymidine uptake after 3 days by lymphoproliferation test. The class given is functional, Homo sapiens.
Test [9] is filed under the species Homo sapiens. Description: (§2) Immunomodulatory activity in resting HMNC assessed as IFN-gamma production after 3 days by EIA. Format: functional.
Test [10] is described as follows: as §2. Format: functional, Homo sapiens.

For the compound `O=C(O)/C=C/c1ccc(O)c(O)c1`, the outcome in test [1], in test [2], in [3] and in test [4] was inactive.

For the compound `O=C(/C=C/c1ccc(O)c(O)c1)O[C@@H]1[C@@H](OC(=O)/C=C/c2ccc(O)c(O)c2)C[C@@](O)(C(=O)O)C[C@@H]1O`, the result in test [1] and in test [3] was inactive.

What is called EC50 is the concentration that produces a half-maximal response. Regarding `O=C(/C=C/c1ccc(O)c(O)c1)O[C@@H]1C[C@](O)(C(=O)O)C[C@@H](O)[C@H]1O` [CHLOROGENIC ACID], the Activity in test [1] was 97.9%; in [2], 38.5 pg/mL; in [3] it was 910 cpm; in test [6] it was “Dose-dependent effect”; in test [9], “Dose-dependent effect”. Moreover, the concentration giving a half-maximal response (EC50) in test [5] is 1.54 µg/mL (≈ 4.35 µM); in test [7], 2.8 µg/mL (≈ 7.9 µM); in test [8], 4.9 µg/mL (≈ 13.8 µM); in [10], 3.9 µg/mL (≈ 11 µM). Further, in test [4], the outcome was Active.

In the case of `O=C(/C=C/c1ccc(O)c(O)c1)O[C@H]1[C@@H](OC(=O)/C=C/c2ccc(O)c(O)c2)C[C@](O)(C(=O)O)C[C@@H]1O`, the Activity in [1] was 78.4%; in test [2], 30.5 pg/mL; in test [3], 726 cpm; in test [6] it was “Dose-dependent effect”; in test [9], “Dose-dependent effect”. Also, the EC50 in test [5] is 4.4 µg/mL (≈ 8.52 µM); in test [7], 5 µg/mL (≈ 9.68 µM); in [8], 8.1 µg/mL (≈ 15.7 µM); in test [10], 1.25 µg/mL (≈ 2.42 µM). The outcome in [4] was Active.

Turning to `O=C(/C=C/c1ccc(O)c(O)c1)O[C@@H]1C[C@](O)(C(=O)O)C[C@@H](OC(=O)/C=C/c2ccc(O)c(O)c2)[C@H]1O`, the result in [1] and in test [3] was inactive.

Consider `CCOC(=O)[C@]1(O)C[C@H](OC(=O)/C=C/c2ccc(O)c(O)c2)[C@@H](OC(=O)/C=C/c2ccc(O)c(O)c2)[C@@H](O)C1`, for which the outcome in test [1] and in [3] was inactive.

`COC(=O)[C@]1(O)C[C@H](OC(=O)/C=C/c2ccc(O)c(O)c2)[C@@H](O)[C@@H](OC(=O)/C=C/c2ccc(O)c(O)c2)C1`: the outcome in test [1] and in test [3] was inactive.

`C[C@@H]1O[C@@H](OC[C@H]2O[C@@H](Oc3c(-c4ccc(O)c(O)c4)oc4cc(O)cc(O)c4c3=O)[C@H](O)[C@@H](O)[C@@H]2O)[C@H](O)[C@H](O)[C@H]1O`: the result in test [1] and in [3] was inactive.

For the origin of these results see ChEMBL document CHEMBL1157280, “Immunomodulatory principles of Dichrocephala bicolor” (J Nat Prod, 1999).
